Measurements as given in US20030181436A1, “Treatment for AIDS, HIV, and other related diseases and compounds for use therewith” (priority 2001, published 2003).

Legend:
[1] = test system: HIV RoJo (a clinical isolate); assay: Chronically infected PBMCs, supernatant reverse transcriptase activity; assay type: cell-based
Protocol: Reverse transcriptase activity was measured in cell-free supernatants. Tritiated thymidine triphosphate (NEN) (TTP) was resuspended in distilled H2O at 5 Ci/mL. Poly rA and oligo dT were prepared as a stock solution which was kept at −20° C. The RT reaction buffer was prepared fresh on a daily basis and consists of 125 μL 1.0 M EGTA, 125 μL dH2O, 110 μL 10% SDS, 50 μL 1.0 M Tris (pH 7.4), 50 μL, 1.0 M DTT, and 40 μL 1.0 M MgCl2. These three solutions were mixed together in a ratio of 2 parts TTP, 1 part poly rA:oligo dT, and 1 part reaction buffer. Ten microliters of this reaction mixture was placed in a round bottom microtiter plate and 15 μL of virus containing supernatant was added and mixed. The plate was incubated at 37° C. in a water bath with a solid support to prevent submersion of the plate and incubated for 60 minutes. Following reaction, the reaction volume was spotted onto pieces of DE81 paper, washed 5 times for 5 minutes each in a 5% sodium phosphate buffer, 2 times for 1 minute each in distilled water, 2 times for 1 minute each in 70% ethanol, and then dried. Opti-Fluor O was added to each sample and incorporated radioactivity was quantitated utilizing a Wallac 1450 Microbetaplus liquid scintillation counter.
In these studies PBMCs are infected with HIV RoJo (a clinical isolate) and a dynamic population of infected PBMCs established over a period of 2 to 3 weeks. This population of infected PBMCs was established and maintained by the addition of fresh PBMCs in a 1:1 ratio every 7 days, thus overcoming the lost of PBMCs to normal cell death processes. Thus a population of cells was established that consisted of uninfected cells, short lived infected cells and long lived infected cells. In experiments where AZT was added to prevent re-infection of the population, we typically saw a 50% reduction in infection following a 7 day treatment. This means that 50% of the virus production from the infected […] population was due re-infection. […] Thus there was a population of infected PBMCs present ([…] of the total) which survived for extended periods of time and thus met the definition of being chronically infected.

PBMCs = assay type: cell-based, Human
Protocol: Peripheral blood […] cells (PBMCs) were obtained from normal hepatitis B and C and HIV-1 negative donors by ficoll hypaque gradient separation. Briefly, anti-coagulated blood was diluted 1:1 with Dulbecco's phosphate buffered saline without Ca^+2 and Mg^+@ (PBS) and layered over 14 mL of Lymphocyte separation media in a 50 ml centrifuge tube. Tubes were then centrifuged for 30 minutes at 600×g. Banded PBLs were gently aspirated from the resulting interface and subsequently washed 2× with PBS by low speed centrifugation. The mononuclear cells were counted, viability determined by Trypan Blue dye exclusion and resuspended in RPMI 1640 medium supplemented with 15% FBS (heat inactivated), 2 mM L-glutamine, 100 U/mL penicillin, 100 μg/mL streptomycin, and 10 μg/mL gentamycin with 2 μg/mL phytohemagluttin (PHA) at 1×10^6 cells/mL. The cells were cultured for 48 to 72 h at 37° C., 5%, C^02. Following incubation, cells were collected by centrifugation, washed and resuspended in RPMI 1640 supplemented with 15% FBS (heat inactivated), 2 mM L-glutamine, 100 U/mL penicillin, 100 μg/mL streptomycin, and 10 μg/mL gentamycin with 40 U/mL, recombinant IL-2 (R & D Systems, Minneapolis, Minn.). IL-2 was included in the culture medium to maintain the cell division initiated by the PHA mitogenic stimulation. The cultures were then maintained until use by ½ culture volume change with fresh IL-2 containing medium every 3 days.
Human peripheral blood mononuclear cells from a minimum of 2 donors, that were blasted with PHA and IL-2, were counted, viability determined by Trypan Blue dye exclusion and mixed in equal ratios. Pooled donors were used to minimize the variability observed between individual donors which results from quantitative and qualitative differences in HIV infection and overall response to the PHA and IL-2 of primary lymphocyte populations. […] The assay was incubated for 6 days in a humidified atmosphere at 37° C., 5% CO2, the plates analyzed for cell viability by MTS dye reduction or incorporation of [^3H] metabolite incorporation.
[^3H]Uridine, [^3H] thymidine or [^3H]leucine incorporation were measured in the following manner. […] Incorporation was then determined on a Wallac Microbeta counter following lysis of the cells with H2O and capture on glass fiber filters using a Skatron harvester.
At assay termination the assay plates were stained with the soluble tetrazolium-based dye MTS (CellTiter® Reagent, Promega) to determined cell viability and quantify compound toxicity. MTS is metabolized by the mitochondria enzymes of metabolically active cells to a soluble formazan product, allowing the rapid quantitative analysis cell viability and compound cytotoxicity. […]

Row | Substance | Percent Control by Supernatant Reverse Transcriptase activity ([1]; Day 7, 1 μg/ml) [Percent Control] | Percent Control by Supernatant Reverse Transcriptase activity ([1]; Day 7, 5 μg/ml) [Percent Control] | Percent Control by Supernatant Reverse Transcriptase activity ([1]; Day 7, 10 μg/ml) [Percent Control] | Percent Control by Supernatant Reverse Transcriptase activity ([1]; Day 7, 25 μg/ml) [Percent Control] | Percent Control by Supernatant Reverse Transcriptase activity ([1]; Day 7, 50 μg/ml) [Percent Control] | Percent Control by Supernatant Reverse Transcriptase activity ([1]; Day 7, 100 μg/ml) [Percent Control] | Percent Control by Supernatant Reverse Transcriptase activity ([1]; Day 14, 1 μg/ml) [Percent Control] | Percent Control by Supernatant Reverse Transcriptase activity ([1]; Day 14, 5 μg/ml) [Percent Control] | Percent Control by Supernatant Reverse Transcriptase activity ([1]; Day 14, 10 μg/ml) [Percent Control] | Percent Control by Supernatant Reverse Transcriptase activity ([1]; Day 14, 25 μg/ml) [Percent Control] | Percent Control by Supernatant Reverse Transcriptase activity ([1]; Day 14, 50 μg/ml) [Percent Control] | Percent Control by Supernatant Reverse Transcriptase activity ([1]; Day 14, 100 μg/ml) [Percent Control] | Percent Control by Supernatant Reverse Transcriptase activity ([1]; da 21, 1 μg/ml) [Percent Control] | Percent Control by Supernatant Reverse Transcriptase activity ([1]; da 21, 5 μg/ml) [Percent Control] | Percent Control by Supernatant Reverse Transcriptase activity ([1]; da 21, 10 μg/ml) [Percent Control] | Percent Control by Supernatant Reverse Transcriptase activity ([1]; da 21, 25 μg/ml) [Percent Control] | Percent Control by Supernatant Reverse Transcriptase activity ([1]; da 21, 50 μg/ml) [Percent Control] | Percent Control by Supernatant Reverse Transcriptase activity ([1]; da 21, 100 μg/ml) [Percent Control] | non-toxic to PBMCs at concentrations (PBMCs) | also measured
1 | Potassium Iodiscorbate [Compound K] | 94 | 87 | 92 | 84 | 70 | 34 | 94 | 57 | 66 | 65 | 56 | 75 | 90 | 77 | 74 | 63 | 46 | 50 | above 400 μg/ml | IC50 in chronically infected PBMCs ([1]; day 7): 68 µg/mL; TC50 in PBMCs by MTS (PBMCs): 499 µg/mL; protein (leucine incorporation) and RNA (uridine incorporation) production start to drop (PBMCs): above 32 μg/ml
2 | Zinc Iodiscorbate [Compound Z] | 256 | 303 | 230 | 217 | 229 | 167 | 63 | 87 | 69 | 74 | 67 | 49 | 80 | 70 | 56 | 60 | 48 | 22 | above 400 μg/ml | IC50 in chronically infected PBMCs ([1]; 21 days): approximately 30 μg/ml
